Data as given in US11147795B2, “Neuroprotective compounds and methods of use” (ARIZONA BOARD OF REGENTS ON BEHALF OF THE UNIVERSITY OF …, priority 2014, dated 2021).

System: larvae expressing TDP-43 in motor neurons
Test: Larval turning assay (locomotor function)
Assay type: in vivo, Drosophila
Conditions: for locomotor function measured by larval turning assays: TDP-43 expressed in motor neurons, FIGS. 1-3; for locomotor function: Student's t-test, N>20 larvae/genotype
Method: Drosophila genetics. TDP-43 was expressed in motor neurons using the GAL4-UAS bipartite expression system. D42 GAL4 was used as an expression driver and UAS-TDP-43 YFP trasgenics were used as responder lines (Estes, et al., 2011, Hum. Mol. Genet).
Locomotor function. Locomotion was assessed using quantitative larval turning assays. Crosses were carried out at 25° C. and wandering third instar larvae were placed on a grape juice plate at room temperature. After a 30 second acclimation period, larvae were gently turned ventral side up. They were observed until they turned over (dorsal side up) and began making a forward motion. The time it took to complete this task was recorded for at least 20 larvae per genotype.
Statistical analyses. Student's t-tests were performed to determine statistical significance.

[1] = larvae expressing TDPG298S in motor neurons
[2] = larvae expressing TDPWT in motor neurons

| SMILES | locomotor function measured by larval turning assays | locomotor function [1] | locomotor function [2] |
| --- | --- | --- | --- |
| CCOC(=O)C1=CCN([S@+]([O-])C(C)(C)C)[C@@H]1C[C@@H](C)CCC=C(C)C [CH-I-108] | significant improvement of locomotor function | improves locomotor function | improves locomotor function |
| CCOC(=O)C1=CCN([S@@+]([O-])C(C)(C)C)[C@H]1c1ccsc1 [CH-III-31] | significant improvement of locomotor function | improves locomotor function | improves locomotor function |
| COc1cc2c(C(=O)C(F)(F)F)c(C(F)(F)F)[nH]c2cc1F [EV-3-298] | significant improvement of locomotor function | improves locomotor function | improves locomotor function |
